From patent US20240366589A1, “NHE3-BINDING COMPOUNDS AND METHODS FOR INHIBITING PHOSPHATE TRANSPORT” (Ardelyx, Inc., priority 2013, published 2024)

Tests used:
Human NHE3 [1] = molecular target: T1, Human NHE3 (Homo sapiens, UniProt P48764); test: Cell-based NHE3 activity under persistent conditions (60 min incubation, washout), human NHE3; settings: Table E5; dihydrochloride salt
T1 construct: expressed in transfected cells; host or cells: Opossum kidney (OK) cells (ATCC), electroporation
T1 sequence (P48764 26-834): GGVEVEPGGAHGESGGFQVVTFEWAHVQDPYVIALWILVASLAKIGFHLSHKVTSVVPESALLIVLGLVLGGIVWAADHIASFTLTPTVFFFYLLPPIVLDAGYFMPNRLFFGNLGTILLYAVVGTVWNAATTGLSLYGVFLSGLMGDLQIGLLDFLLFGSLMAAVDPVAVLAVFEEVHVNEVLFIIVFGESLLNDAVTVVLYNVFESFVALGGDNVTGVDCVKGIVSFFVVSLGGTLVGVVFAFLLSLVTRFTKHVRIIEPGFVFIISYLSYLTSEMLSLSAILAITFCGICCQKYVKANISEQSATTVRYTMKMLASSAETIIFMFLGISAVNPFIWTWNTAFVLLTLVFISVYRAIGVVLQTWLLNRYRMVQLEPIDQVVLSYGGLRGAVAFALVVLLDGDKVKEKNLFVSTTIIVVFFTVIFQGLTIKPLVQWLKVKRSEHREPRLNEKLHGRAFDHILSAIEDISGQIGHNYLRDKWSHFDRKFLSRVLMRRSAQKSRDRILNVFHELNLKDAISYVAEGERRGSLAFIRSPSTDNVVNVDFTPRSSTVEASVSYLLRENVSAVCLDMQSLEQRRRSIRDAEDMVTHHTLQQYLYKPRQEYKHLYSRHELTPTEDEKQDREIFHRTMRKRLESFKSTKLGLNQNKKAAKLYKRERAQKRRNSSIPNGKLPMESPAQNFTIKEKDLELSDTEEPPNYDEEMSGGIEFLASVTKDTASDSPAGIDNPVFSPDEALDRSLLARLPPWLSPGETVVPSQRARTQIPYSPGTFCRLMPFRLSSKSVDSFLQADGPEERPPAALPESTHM

[2] = system: absorption of sodium from the intestinal lumen; test: Inhibition of intestinal sodium absorption: urinary sodium (uNa) 16 h after single oral dose in rats; assay type: in vivo, rat; settings: for UNa (%): urinary Na excretion as % of vehicle
Summary of the method: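 Eight-week-old Sprague-Dawley rats (n=6) given single oral gavage of compound or water vehicle in the late afternoon, then kept in metabolic cages with chow and water ad libitum. Urine collected over 16 h; sodium quantified by ion chromatography and expressed as % of vehicle mean, compared by one-way ANOVA with Dunnett's test.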

Human NHE3 [3] = molecular target: T1, Human NHE3; test: Cell-based NHE3 activity under prompt conditions (OK cells, BCECF pH recovery), human NHE3; settings: for Human NHE3 pIC50 Prompt: Table E5, 001 free base, 002-005 dihydrochloride salt; for pIC50 Prompt: Table E6, NHE3 species not stated
Summary of the method: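 Cells (OK line, electroporated with rat or human NHE3) are washed in NaCl-HEPES pH 7.4, then dye-loaded 30 min at room temperature with 5 μM BCECF-AM in NH4Cl buffer.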

Row | Structure (SMILES) | Human NHE3 pIC50 Persistent (Human NHE3 [1]) | UNa (%) ([2]; single oral dose 1 mg/kg) | Human NHE3 pIC50 Prompt (Human NHE3 [3]) | pIC50 Prompt (Human NHE3 [3]) | effect on urinary Na (UNa) ([2]; in words) | UNa (%) ([2]; single oral dose 10 mg/kg)
1 | CN1Cc2c(Cl)cc(Cl)cc2[C@H](c2cccc(S(=O)(=O)NCCOCCOCCNC(=O)NCCCCNC(=O)NCCOCCOCCNS(=O)(=O)c3cccc([C@@H]4CN(C)Cc5c(Cl)cc(Cl)cc54)c3)c2)C1 [Cpd 002] | 8.2 | 11 @ 1 mg/kg % | 8 | 8 |  | 
2 | CN1Cc2c(Cl)cc(Cl)cc2[C@@H](c2cccc(S(=O)(=O)NCCOCCOCCNC(=O)NCCCCNC(=O)NCCOCCOCCNS(=O)(=O)c3cccc([C@H]4CN(C)Cc5c(Cl)cc(Cl)cc54)c3)c2)C1 [Cpd 004] | 5.6 |  | 7.3 | 7.3 | no significant effect | 68 @ 10 mg/kg %
